Laboratory results from US20050209278A1, “Piperidinyl- and piperazinyl-sulfonylmethyl hydroxamic acids and their use as protease inhibitors” (priority 2002, published 2005).

Target: T1, MMP-2 (Homo sapiens, UniProt P08253)
T1 construct: made in house; host or cells: MMP-2-transfected p2AHT2 cells
T1 sequence (P08253 110-660): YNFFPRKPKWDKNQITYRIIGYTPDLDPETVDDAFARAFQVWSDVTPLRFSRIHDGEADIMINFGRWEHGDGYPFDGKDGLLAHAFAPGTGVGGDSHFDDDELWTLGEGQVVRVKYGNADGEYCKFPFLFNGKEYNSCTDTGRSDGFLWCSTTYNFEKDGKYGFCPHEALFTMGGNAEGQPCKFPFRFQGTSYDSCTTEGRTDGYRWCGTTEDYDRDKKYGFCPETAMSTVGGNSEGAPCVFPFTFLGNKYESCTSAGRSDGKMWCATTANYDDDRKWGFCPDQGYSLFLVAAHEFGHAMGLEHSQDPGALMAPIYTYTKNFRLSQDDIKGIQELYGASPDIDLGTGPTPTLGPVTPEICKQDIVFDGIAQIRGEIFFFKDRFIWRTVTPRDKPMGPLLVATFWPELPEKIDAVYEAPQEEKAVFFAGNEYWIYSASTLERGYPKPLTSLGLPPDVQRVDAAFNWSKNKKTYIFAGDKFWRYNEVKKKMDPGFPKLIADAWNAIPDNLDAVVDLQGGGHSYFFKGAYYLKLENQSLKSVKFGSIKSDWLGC
Test: In vitro MMP inhibition, IC50 determination (fluorogenic substrate I)
Type: biochemical
Settings: value in parenthesis; read-out: MMP-2 (IC-50)
Procedure: Several hydroxamic acids and salts thereof were analyzed in in vitro assays to determine their ability to inhibit the MMP cleavage of peptide substrates. […] and IC50 constants were calculated from the assayed hydroxamic acid-MMP interactions.
Human recombinant MMP-1, MMP-2, MMP-9, MMP-13, and MMP-14 were used in this assay. All enzymes were prepared in Assignee's laboratories following usual laboratory procedures. Protocols for the preparation and use of these enzymes are available in the scientific literature. See, e.g., Enzyme Nomenclature (Academic Press, San Diego, Calif., 1992) (and the citations therein). See also, Freije et al., “Molecular cloning and expression of collagenase-3, a novel human matrix metalloproteinase produced by breast carcinomas,” J Biol. Chem., 269(24), 16766-16773 (1994).
The MMP-2 proenzyme was purified by gelatin Sepharose chromatography from MMP-2-transfected p2AHT2 cells provided by Dr. Gregory Goldberg of Washington University (St. Louis, Mo.).
All MMPs were activated using 4-aminophenylmercuric acetate (“APMA”, Sigma Chemical, St. Louis, Mo.) or trypsin. MMP-9 also was activated using human recombinant MMP-3 (purified in Assignee's laboratory following standard cloning and purification techniques).
Two fluorogenic, methoxycoumarin-containing polypeptide substrates were used in the MMP inhibition assays: [drawing 427] Here, “Dpa” is 3-(2,4-dinitrophenyl)-L-2,3-diaminopropionyl group, and “MCA” is 7-methoxycoumarin-4-yl acetyl. Substrate (I) was purchased from Baychem (Redwood City, Calif.), and substrate II was prepared Assignee's laboratory. Substrate I was used in the IC50 determination assays, while substrate II was used in the Ki determination assays. In the absence of MMP inhibitory activity, either substrate is cleaved at the Gly-Leu peptide bond. This cleavage separates the highly fluorogenic peptide from the 2,4-dinitrophenyl quencher, thus resulting in increase of fluorescent intensity.
The stock solutions of the assayed hydroxamic acids (or salts thereof) were prepared in 1% dimethyl sulfoxide (DMSO). These stock solutions were diluted in Buffer A (100 mM Tris-HCl, 100 mM NaCl, 10 mM CaCl2, 0.05% polyoxyethylene 23 lauryl ether, pH 7.5) to obtain solutions with different hydroxamic acid concentrations, i.e., assay solutions with different concentrations of the assayed MMP inhibitory compound. The experiment controls contained the same amount of Buffer A/DMSO as the assayed sample, but contained no hydroxamic acid (or salt thereof).
The assays from which the IC50 determinations were made were performed as follows. The MMPs were activated with either trypsin or APMA (4-aminophenylmercuric acetate, Sigma Chemical, St. Louis, Mo.). The assayed hydroxamic acid samples were incubated in Microfluor™ White Plates (Dynatech, Chantilly, Va.) and analyzed on a Perkin Elmer L550 plate reader (Norwalk, Conn.). The excitation wavelength was 328 nm, and the emission wavelength—415 nm. All samples (assayed hydroxamic acids and controls) were incubated in separate plates at room temperature in the presence of 4 μM of MMP substrate (I). As stated in the previous paragraph, samples containing varying concentrations of the same assayed hydroxamic acid were prepared. Inhibition was measured as a reduction in fluorescent intensity as a function of MMP inhibitor concentration.
The above protocols were used to determine IC50 constants and Ki values for the compounds in Examples 1-27 above. All values in Table 2 are given in nM units. The IC50 measurements are in parenthesis.

IC50 | SMILES
1.9 nM | CCCC(C)Cc1ccc(N2CCN(S(=O)(=O)C3(C(=O)NO)CCN(CCOC)CC3)CC2)cc1 (stereo not drawn) [Example 189]
1.6 nM | CCC(C)Cc1ccc(N2CCN(S(=O)(=O)C3(C(=O)NO)CCN(CCOC)CC3)CC2)cc1 (stereo not drawn) [Example 190]
< 0.1 nM | COCCN1CCC(C(=O)NO)(S(=O)(=O)N2CCN(c3ccc(CCCCC(C)C)cc3)CC2)CC1 [Example 191]
1.3 nM | COCCN1CCC(C(=O)NO)(S(=O)(=O)N2CCN(c3ccc(CC(C)C)cc3)CC2)CC1 [Example 192]
0.2 nM | CCc1ccc(N2CCN(S(=O)(=O)C3(C(=O)NO)CCN(CCOC)CC3)CC2)cc1 [Example 193]
0.5 nM | COCCN1CCC(C(=O)NO)(S(=O)(=O)N2CCN(c3ccc(C)cc3)CC2)CC1 [Example 194]
2.4 nM | COCCN1CCC(C(=O)NO)(S(=O)(=O)N2CCN(c3ccccc3)CC2)CC1 [Example 195]
30.5 nM | COCCN1CCC(C(=O)NO)(S(=O)(=O)N2CCN(c3nc4ccccc4o3)CC2)CC1 [Example 196]
19.1 nM | CCCCCc1ccc(N2CCN(S(=O)(=O)C3(C(=O)NO)CCOCC3)CC2)nn1 [Example 197]
18.2 nM | O=C(NO)C1(S(=O)(=O)N2CCN(c3ccc(Cl)nn3)CC2)CCOCC1 [Example 198]
< 0.1 nM | CCCCCCc1ccc(N2CCN(S(=O)(=O)C3(C(=O)NO)CCN(CCOC)CC3)CC2)cc1 [Example 199]
< 0.1 nM | CCCc1ccc(N2CCN(S(=O)(=O)C3(C(=O)NO)CCN(CCOC)CC3)CC2)cc1 [Example 200]
< 0.1 nM | COCCN1CCC(C(=O)NO)(S(=O)(=O)N2CCN(c3ccc(Br)cc3)CC2)CC1 [Example 201]
< 0.1 nM | COCCN1CCC(C(=O)NO)(S(=O)(=O)N2CCN(c3ccc(OC(F)(F)F)cc3)CC2)CC1 [Example 202]
< 0.1 nM | O=C(NO)C1(S(=O)(=O)N2CCN(c3ccc(OC(F)(F)F)cc3)CC2)CCN(C2CC2)CC1 [Example 203]
